From PMC5078989, “Targeted inhibition of the COP9 signalosome for treatment of cancer” (Nature Communications, 2016)

System: panel of cancer cell lines
Test: Cell viability (CellTiter-Glo) dose-response across cancer cell line panel;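 on EC50: after 72 h compound incubation with CellTiter-Glo ATP readout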
Assay type: cell-based, human
Settings: for EC50: Homo sapiens
Excerpt: Next, we explored the effect of CSN5 inhibition on the viability of cancer cells. To obtain a comprehensive picture, we generated dose–response curves with a CSN5 inhibitor across more than 500 cancer cell lines in a previously described standardized setting[47] (Supplementary Data 1).
A standardized CellTiter-Glo Assay (Promega #G7570) based on the quantification of ATP was applied according to the manufacturer's protocol to measure the amount of viable cells in culture. In brief, cells were seeded into 384-well plates at optimal density for each cell line. After 4 h, compounds were added at different concentrations in growth medium and incubated for another 72 h in a humidifying chamber at 37 °C and 5% CO2. […] EC50 values were calculated from the plot of percentage of inhibition versus inhibitor concentration using the nonlinear regression analysis software Origin 7.5SR6 (OriginLab Corp.).

## COCc1ccccc1NCc1ccc([C@H]2[C@@H](O)CCCc3cncn32)c(-c2ccccc2Cl)c1 [CSN5i-2, (5S,6S)-5-(2′-chloro-5-(((2-(methoxymethyl)phenyl)amino)methyl)-[1,1′-biphenyl]-2-yl)-6,7,8,9-tetrahydro-5H-imidazo[1,5-a]azepin-6-ol]
SNU-449, SNU-449
  EC50: 2130 nM
SNU-475, SNU-475
  EC50: 2610 nM
SNU-685
  EC50: 2090 nM
SNU-738
  EC50: 14200 nM
SNU-761
  EC50: 281 nM
SNU-1040
  EC50: 26800 nM
SNU-1079
  EC50: 661 nM
SNU-C1, SNU-C1
  EC50: 11700 nM
SNU-C2A
  EC50: 5180 nM
SNU-C4, SNU-C4
  EC50: 2280 nM
SNU-C5
  EC50: 513 nM
SR-786, SR-786
  EC50: 515 nM
SU-DHL10, SU-DHL-10
  EC50: 649 nM
SU-DHL-4, SU-DHL-4
  EC50: 703 nM
SU-DHL-5, SU-DHL-5
  EC50: 161 nM
SU-DHL-6, SU-DHL-6
  EC50: 261 nM
SU-DHL-8, SU-DHL-8
  EC50: 467 nM
SU.86.86, SU.86.86
  EC50: 27000 nM
SUIT-2, SUIT-2
  EC50: 2040 nM
SUM44PE
  EC50: 17000 nM
SUM52PE
  EC50: 4060 nM
SUM149PT
  EC50: 883 nM
SUM185PE
  EC50: 11200 nM
SUM190PT
  EC50: 2950 nM
SUP-T1, SUP-T1
  EC50: 768 nM
SW48, SW48
  EC50: 3240 nM
SW480, SW480
  EC50: 1840 nM
SW837, SW837
  EC50: > 30000 nM
SW900, SW 900
  EC50: 1450 nM
SW982, SW982
  EC50: 1380 nM
SW1271, SW 1271
  EC50: 766 nM
SW1353, SW 1353
  EC50: 1370 nM
SW1573, SW 1573
  EC50: 1070 nM
SW1783, SW 1783
  EC50: 358 nM
SW-403, SW403
  EC50: > 30000 nM
SW-620, SW620
  EC50: 2980 nM
SYO-1
  EC50: 472 nM
Sq-1
  EC50: 1270 nM
T3M4, T3M-4
  EC50: 2420 nM
T47D, T-47D
  EC50: 1030 nM
TALL-1, TALL-1
  EC50: 639 nM
TANOUE
  EC50: 248 nM
TC-71, TC-71
  EC50: 1990 nM
TCC-PAN2
  EC50: 817 nM
TE-1, TE-1
  EC50: 751 nM
TE-6, TE-6
  EC50: 1680 nM
TE-11, TE-11
  EC50: 1030 nM
TE-14
  EC50: 3660 nM
TE-15, TE-15
  EC50: 69.5 nM
TF-1, TF-1
  EC50: 2590 nM
THP-1, THP-1
  EC50: 636 nM
TT2609-C02
  EC50: 1770 nM
TYK-nu
  EC50: 155 nM
U266B1
  EC50: 485 nM
U-87 MG
  EC50: 1190 nM
U-118-MG, U-118 MG
  EC50: 1290 nM
U-251, U-251 MG
  EC50: 1610 nM
U-937, U-937
  EC50: 354 nM
UACC-62, UACC-62
  EC50: 3710 nM
UACC-257, UACC-257
  EC50: 556 nM
UCH1, UCH-1
  EC50: 415 nM
UKE1, UKE1
  EC50: 160 nM
VM-CUB-1, VM-CUB1
  EC50: 6690 nM
VMRC-LCD
  EC50: 961 nM
VMRC-RCW
  EC50: 2190 nM
WM 266-4, WM-266-4
  EC50: 1440 nM
WM983B, WM-983B
  EC50: 1390 nM
WM-88
  EC50: 20100 nM
  AMAX: -55.011
WM-115, WM-115
  EC50: 1250 nM
WM-1799, WM1799
  EC50: 1750 nM
WSU-WM
  EC50: 814 nM
YAPC
  EC50: 569 nM
Hs 294T
  AMAX: -53.6994
Hs 695T
  AMAX: -69.7728
Hs 936.T
  AMAX: -84.1429
HuG1-N
  AMAX: -75.3496
HuH-7
  AMAX: -82.3154
IGR-37
  AMAX: -80.2025
IGROV1
  AMAX: -66.8455
IPC-298
  AMAX: -65.2966
Ishikawa
  AMAX: -71.6276
JHH-4
  AMAX: -91.4689
JHOS-2
  AMAX: -38.1051
JHUEM-2
  AMAX: -86.9649
JL-1
  AMAX: -47.9564
JVM-2
  AMAX: -85.1393
KARPAS-422
  AMAX: -79.6206
KATO III
  AMAX: -58.0161
KBM-7
  AMAX: -95.2333
KE-97
  AMAX: -97.8925
KMRC-1
  AMAX: -54.4009
KP4
  AMAX: -68.6951
KP-1N
  AMAX: -56.9313
KP-3
  AMAX: -58.802
KU-19-19
  AMAX: -51.5044
KYSE-150
  AMAX: -49.8534
KYSE-180
  AMAX: -63.0038
Kasumi3
  AMAX: -93.6402
LUDLU-1
  AMAX: -71.9634
MFE-280
  AMAX: -66.9982
MG-63
  AMAX: -59.1323
MM138
  AMAX: -89.9344
MM415
  AMAX: -88.4479
MM426
  AMAX: -60.9162
MM485
  AMAX: -69.291
MM537
  AMAX: -73.4726
MM576
  AMAX: -52.394
MOLM-16
  AMAX: -89.6899
MOLT-13
  AMAX: -95.3007
MeWo
  AMAX: -53.7976
NB-1
  AMAX: -92.7531
NCI-H82
  AMAX: -95.3022
NCI-H211
  AMAX: -68.3447
NCI-H322
  AMAX: -37.8008
NCI-H441
  AMAX: -64.9424
NCI-H647
  AMAX: -44.0246
NCI-H650
  AMAX: -44.5856
NCI-H810
  AMAX: -67.8352
NCI-H841
  AMAX: -78.3347
NCI-H1155
  AMAX: -84.5649
NCI-H1299
  AMAX: -58.5091
NCI-H1339
  AMAX: -66.5268
NCI-H1373
  AMAX: -65.8548
NCI-H1568
  AMAX: -93.8026
NCI-H2087
  AMAX: -59.3219
NCI-H2122
  AMAX: -79.8003
NCI-H2126
  AMAX: -18.8926
NCI-H2172
  AMAX: -75.6398
NCI-H2452
  AMAX: -33.7782
NCI-N87
  AMAX: -47.3502
ONCO-DG-1
  AMAX: -61.2577
OUMS-23
  AMAX: -82.8646
OV56
  AMAX: -76.0147
P3HR-1
  AMAX: -76.4402
P12-ICHIKAWA
  AMAX: -95.4636
PC-3
  AMAX: -57.0972
Panc 03.27
  AMAX: -70.0008
Panc 10.05
  AMAX: -84.7778
RT-112
  AMAX: -42.1113
SEM
  AMAX: -97.9816
SK-ES-1
  AMAX: -89.0847
other, less sensitive cell lines of the panel
  maximal loss of viability: 40–60%
Some cell lines of the panel (cytotoxic)
  Amax (high-concentration effect level): ≤ −80%
